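Cultured in 96-well plates, cells were exposed to test compound for 48 hours across five concentrations. The concentration for full growth arrest is given as TGI.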
Key:
Test in all cases: NCI anticancer screen, dose series, 48 h
786-0 renal = test system: 786-0 renal
SK-OV-3 ovarian = test system: SK-OV-3 ovarian
PC-3 prostate = test system: PC-3 prostate
OVCAR-8 ovarian = test system: OVCAR-8 ovarian
CCRF-CEM leukemia = test system: CCRF-CEM leukemia
HOP-62 NSCLC = test system: HOP-62 NSCLC
SF-295 CNS = test system: SF-295 CNS
ACHN renal = test system: ACHN renal
NCI-H460 lung = test system: NCI-H460 lung
SK-MEL-5 melanoma = test system: SK-MEL-5 melanoma
RPMI-8226 leukemia = test system: RPMI-8226 leukemia
NCI-H226 lung = test system: NCI-H226 lung
SF-539 CNS = test system: SF-539 CNS
MDA-N = test system: MDA-N
BT-549 breast = test system: BT-549 breast
OVCAR-5 ovarian = test system: OVCAR-5 ovarian
MDA-MB-231 breast = test system: MDA-MB-231 breast
SNB-75 CNS = test system: SNB-75 CNS
K-562 leukemia = test system: K-562 leukemia
HCC-2998 colon = test system: HCC-2998 colon
IGROV1 ovarian = test system: IGROV1 ovarian
MCF7 breast = test system: MCF7 breast
LOX IMVI melanoma = test system: LOX IMVI melanoma
NCI-H522 lung = test system: NCI-H522 lung
U251 CNS = test system: U251 CNS
SW-620 colon = test system: SW-620 colon
HCT-116 colon = test system: HCT-116 colon
SN12C renal = test system: SN12C renal
HL-60(TB) leukemia = test system: HL-60(TB) leukemia
COLO 205 colon = test system: COLO 205 colon
UACC-62 melanoma = test system: UACC-62 melanoma
M14 melanoma = test system: M14 melanoma
OVCAR-4 ovarian = test system: OVCAR-4 ovarian
A498 renal = test system: A498 renal
SK-MEL-2 melanoma = test system: SK-MEL-2 melanoma
OVCAR-3 ovarian = test system: OVCAR-3 ovarian
T-47D breast = test system: T-47D breast
HCT-15 colon = test system: HCT-15 colon
SR leukemia = test system: SR leukemia
DU-145 prostate = test system: DU-145 prostate
RXF 393 renal = test system: RXF 393 renal
NCI-H23 lung = test system: NCI-H23 lung
HT29 colon = test system: HT29 colon
MOLT-4 leukemia = test system: MOLT-4 leukemia
HS 578T breast = test system: HS 578T breast
UACC-257 melanoma = test system: UACC-257 melanoma
SF-268 CNS = test system: SF-268 CNS
EKVX NSCLC = test system: EKVX NSCLC
HOP-92 NSCLC = test system: HOP-92 NSCLC
TK-10 renal = test system: TK-10 renal
A549 NSCLC = test system: A549 NSCLC
SK-MEL-28 melanoma = test system: SK-MEL-28 melanoma
UO-31 renal = test system: UO-31 renal
NCI/ADR-RES ovarian = test system: NCI/ADR-RES ovarian
CAKI-1 renal = test system: CAKI-1 renal
SNB-19 CNS = test system: SNB-19 CNS
KM12 colon = test system: KM12 colon
MALME-3M melanoma = test system: MALME-3M melanoma
MDA-MB-435 = test system: MDA-MB-435

Measured: TGI

Cc1cc(NS(=O)(=O)c2ccc(Nc3c4ccccc4nc4ccc(C(=O)Nc5ccc(S(N)(=O)=O)cc5)cc34)cc2)no1
> 100 µM: 786-0 renal | SK-OV-3 ovarian | PC-3 prostate | OVCAR-8 ovarian | CCRF-CEM leukemia | HOP-62 NSCLC | SF-295 CNS | ACHN renal | NCI-H460 lung | SK-MEL-5 melanoma | RPMI-8226 leukemia | NCI-H226 lung | SF-539 CNS | MDA-N | BT-549 breast | OVCAR-5 ovarian | MDA-MB-231 breast | SNB-75 CNS | K-562 leukemia | HCC-2998 colon | IGROV1 ovarian | MCF7 breast | LOX IMVI melanoma | NCI-H522 lung | U251 CNS | SW-620 colon | HCT-116 colon | SN12C renal | HL-60(TB) leukemia | COLO 205 colon | UACC-62 melanoma | M14 melanoma | OVCAR-4 ovarian | A498 renal | SK-MEL-2 melanoma | OVCAR-3 ovarian | T-47D breast | HCT-15 colon | SR leukemia | DU-145 prostate | RXF 393 renal | NCI-H23 lung | HT29 colon | MOLT-4 leukemia | HS 578T breast | UACC-257 melanoma | SF-268 CNS | EKVX NSCLC | HOP-92 NSCLC | TK-10 renal | A549 NSCLC | SK-MEL-28 melanoma | UO-31 renal | NCI/ADR-RES ovarian | CAKI-1 renal | SNB-19 CNS | KM12 colon | MALME-3M melanoma | MDA-MB-435

COC(=O)[C@@H]1C[C@H]([Se]c2ccccc2)CN1C(=O)OCc1ccccc1
65 µM: MDA-MB-435
35.8 µM: UACC-62 melanoma
42.2 µM: SK-MEL-2 melanoma
69.2 µM: SK-MEL-28 melanoma
95.3 µM: UO-31 renal
66 µM: HL-60(TB) leukemia
68.2 µM: MDA-N
41.5 µM: MCF7 breast
77.2 µM: MALME-3M melanoma
66.8 µM: MOLT-4 leukemia
84.3 µM: RXF 393 renal
> 100 µM: 786-0 renal | SK-OV-3 ovarian | PC-3 prostate | OVCAR-8 ovarian | CCRF-CEM leukemia | HOP-62 NSCLC | SF-295 CNS | ACHN renal | NCI-H226 lung | SF-539 CNS | OVCAR-5 ovarian | MDA-MB-231 breast | SNB-75 CNS | K-562 leukemia | HCC-2998 colon | IGROV1 ovarian | NCI-H522 lung | U251 CNS | SW-620 colon | HCT-116 colon | SN12C renal | M14 melanoma | OVCAR-4 ovarian | A498 renal | T-47D breast | HCT-15 colon | SR leukemia | DU-145 prostate | HS 578T breast | UACC-257 melanoma | SF-268 CNS | EKVX NSCLC | HOP-92 NSCLC | TK-10 renal | A549 NSCLC | NCI/ADR-RES ovarian | CAKI-1 renal | SNB-19 CNS | KM12 colon
60.7 µM: BT-549 breast
30.6 µM: SK-MEL-5 melanoma
54.5 µM: COLO 205 colon
86.1 µM: NCI-H460 lung
99.2 µM: NCI-H23 lung
70.4 µM: HT29 colon
71.8 µM: RPMI-8226 leukemia
26.5 µM: LOX IMVI melanoma
67.1 µM: OVCAR-3 ovarian

— PubChem BioAssay (NCI)
